Test results: patent US7396910B2, “Transient receptor potential channel TRPV3 and its use” (IRM LLC, priority 2001, dated 2008)
Entries after “also recorded” stand apart in the source; their conditions may differ.

Legend:
mouse TRPM8 [1] = molecular target: T1, mouse TRPM8 (Mus musculus, UniProt Q8R4D5); assay: Fura-2 calcium imaging of TRPM8-expressing CHO cells; format: cell-based
T1 construct: expressed in transfected cells
Source text: Given the similarity of TRPM8 protein to TRPV family members and its unique expression pattern, the effects of heat, capsaicin, cold and menthol in mediating calcium influx are examined using transfected CHO-K1/FRT cells expressing TRPM8 protein and a fluorescent calcium imaging method as described in detail below.
To generate mouse TRPM8-expressing CHO cell lines, mouse TRPM8 cDNA are subcloned in pcDNA5 (Invitrogen), transfected into CHO-K1/FRT cells using Fugene 6 (Roche). The transfected cells are selected by growth in MEM medium containing […] hygromycin (Gibco BRL). Populations are frozen at early passage numbers and these stocks are used for further studies. Stable clones that express the mRNAs are identified by Northern blot analysis as well as Southern blotting to confirm integration site (not shown).
Calcium imaging experiments are performed essentially as previously described (see Savidge et al., Neuroscience, 102:177-184 (2001)). Briefly, cells are plated on glass coverslips and loaded with Fura-2 acetoxymethyl ester ([…]) and incubated for 30-60 minutes at room temperature in […] of pluronic acid (Molecular Probes, Eugene, Oreg.) in a HEPES-buffered saline (2 mM Ca 2+). Coverslips are placed in a laminar flow perfusion chamber (Warner Instrument Corp.) and constantly perfused with HEPES-buffered saline (2 mM Ca^2+) via a local perfusion pipette through which buffer and chilled solutions are also applied. Chilled stimulations consist of a linear decrease (˜1-1.5° C. sec^−1) in perfusate temperature from 33° C. to 10° C. Perfusate temperature is controlled by a regulated Peltier device and is monitored in the cell chamber by a miniature thermocouple. Alternatively, cells are plated on 24-well tissue culture plates, loaded with Fura-2 and application of solutions is performed with a 3 cc syringe over a period of 10 seconds. Images of Fura-2 loaded cells with the excitation wavelength alternating between […] are captured with a cooled CCD camera. Following subtraction of background fluorescence, the ratio of fluorescence intensity at the two wavelengths is calculated. Ratio levels in groups of 20-40 individual cells are analyzed using MetaFluor (Universal Imaging Corporation). All graphs are averaged responses from groups of 20-30 individual cells from representative single experiments. […] Hanks balanced salt solution (HBSS), phosphate buffered saline (PBS) and all cell culture reagents are obtained from Gibco BRL. Ruthenium red, capsaicin and menthol are obtained from Sigma.

mouse TRPM8 [2] = molecular target: T1, mouse TRPM8; assay: Whole-cell voltage clamp of TRPM8-expressing CHO cells; format: cell-based
Experimental: To investigate the membrane responses to cold and menthol, voltage clamp experiments are carried out on TRPM8 expressing cells which are prepared as described above.
Cells are plated onto poly-D-lysine coated cover-slips for recording purposes and recordings undertaken 18-24 hours later. Experiments are carried out at room temperature using whole-cell voltage clamp technique, with an Axopatch 2B amplifier, filtered at 5 kHz and pClamp suite of software (Axon Instruments). Series resistant compensation is 80% for all experiments, using 2-5 MΩ fire-polished pipettes. Recording solutions are as follows; pipette solution for all experiments is (mM) CsCl, 140; CaCl2, 1; EGTA, 10; HEPES, 10; MgATP, 2; titrated to pH 7.4 with CsOH. For menthol and cold activated currents the bath solution is (mM): NaCl, 140; KCl, 5; Glucose; 10, HEPES, 10; CaCl2, 2; MgCl2, 1; titrated to pH 7.4 with NaOH. Current-voltage relationships are used to evaluate reversal potentials with voltage ramps from −100 to +60 mV (2 second duration). For the permeability studies for the monovalent ions the NaCl in a simplified bath solution (mM): NaCl, 140; Glucose; 10, HEPES, 10; CaCl2, 2; MgCl2, 1, is substituted by either equimolar CsCl or KCl (titrated with CsOH or KOH). For calcium permeability estimates, the bath solutions contains (mM) NaCl, 100; Glucose, 10 mM; Hepes, 10 mM (titrated with NaOH) plus 1 or 30 mM CaCl2. Osmolarity of solutions are adjusted by addition of sucrose. Permeability ratios for the monovalent cations to Na (PX/PNa) are calculated as follows: PX/PNa=Eshift={RT/F}log(PX/PNa[X]O/[Na]O)
where B′=P′Ca/PNa and P′Ca=PCa/(1+e^EF/RT) and [Ca]O(1) and [Ca]O(2) refer to the two different calcium concentrations. Local perfusion of menthol is via a TC^2bip temperature controller. A Marlow temperature controller is used for the cooling ramps.

[3] = test system: Non-transfected CHO cells; assay: Fura-2 calcium imaging of non-transfected CHO cells (control cells); format: cell-based, Chinese Hamster; conditions: tested up to 1 mM
[4] = test system: Non-transfected CHO cells; assay: Whole-cell voltage clamp of non-transfected CHO cells (control cells); format: cell-based, Chinese Hamster; conditions: temperatures >23° C.
Experimental: To investigate the membrane responses to cold and menthol, voltage clamp experiments are carried out on TRPM8 expressing cells which are prepared as described above. Cells are plated onto poly-D-lysine coated cover-slips for recording purposes and recordings undertaken 18-24 hours later. […] Series resistant compensation is 80% for all experiments, using 2-5 MΩ fire-polished pipettes. Recording solutions are as follows; pipette solution for all experiments is (mM) CsCl, 140; […] EGTA, 10; HEPES, 10; […] For menthol and cold activated currents the bath solution is (mM): NaCl, 140; KCl, 5; Glucose; 10, HEPES, 10; […] Current-voltage relationships are used to evaluate reversal potentials with voltage ramps from -100 to +60 mV (2 second duration). For the permeability studies for the monovalent ions the NaCl in a simplified bath solution (mM): NaCl, 140; Glucose; 10, HEPES, 10; […] MgCl2, 1, is substituted by either equimolar CsCl or KCl (titrated with CsOH or KOH). For calcium permeability estimates, the bath solutions contains (mM) NaCl, 100; Glucose, 10 mM; Hepes, 10 mM (titrated with NaOH) plus 1 or 30 mM CaCl2. Osmolarity of solutions are adjusted by addition of sucrose. Permeability ratios for the monovalent cations to Na (PX/PNa) are calculated as follows: […]={[…])

Mouse TRPV3 = molecular target: T2, Mouse TRPV3 (Mus musculus, UniProt Q8K424, A9V); assay: Whole-cell voltage clamp of TRPV3-expressing CHO cells (heat-evoked currents); format: cell-based
T2 construct: expressed in transfected cells
T2 sequence (Q8K424 1-791 A9V): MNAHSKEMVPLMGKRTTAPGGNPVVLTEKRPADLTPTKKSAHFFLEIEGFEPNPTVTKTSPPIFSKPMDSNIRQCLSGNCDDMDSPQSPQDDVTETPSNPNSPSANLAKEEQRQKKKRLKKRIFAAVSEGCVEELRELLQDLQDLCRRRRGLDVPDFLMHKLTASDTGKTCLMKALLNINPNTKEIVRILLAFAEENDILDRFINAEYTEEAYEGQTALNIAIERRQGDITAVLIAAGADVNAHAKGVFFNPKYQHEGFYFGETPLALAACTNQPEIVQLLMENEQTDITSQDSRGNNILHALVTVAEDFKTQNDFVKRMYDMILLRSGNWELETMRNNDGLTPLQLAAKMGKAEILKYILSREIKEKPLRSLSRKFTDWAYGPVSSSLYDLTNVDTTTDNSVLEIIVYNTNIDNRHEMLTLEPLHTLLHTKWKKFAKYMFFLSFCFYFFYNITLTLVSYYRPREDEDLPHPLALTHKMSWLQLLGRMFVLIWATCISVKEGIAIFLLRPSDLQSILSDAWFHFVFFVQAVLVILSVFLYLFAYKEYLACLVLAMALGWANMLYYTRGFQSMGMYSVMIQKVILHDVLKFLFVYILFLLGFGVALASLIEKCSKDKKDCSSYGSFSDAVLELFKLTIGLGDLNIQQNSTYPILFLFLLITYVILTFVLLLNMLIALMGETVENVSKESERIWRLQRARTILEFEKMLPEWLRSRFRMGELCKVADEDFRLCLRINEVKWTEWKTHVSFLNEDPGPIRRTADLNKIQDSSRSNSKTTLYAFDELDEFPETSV
Experimental: Given the high degree of homology of TRPV3 to TRPV family members, TRPV3 is tested to determine whether it responds to stimuli known to activate other closely-related family members. Accordingly, the effects of heat upon TRPV3 activity in mediating conductance are examined using whole-cell patch-clamp analysis of transfected CHO cell lines expressing TRPV3.
Mouse TRPV3 and rat TRPV1 cDNA are subcloned into pcDNA5 (Invitrogen) and transfected into CHO-K1/FRT cells using Fugene 6 (Roche). The transfected cells are selected by growth in MEM medium containing 200 μg/mL hygromycin (Gibco BRL). Populations are frozen at early passages and these stocks are used for further studies. Stable clones that express the mRNAs are identified by Northern blot analysis as well as Southern blotting to confirm integration site. Long-term cultures are subsequently maintained at 33° C.
TRPV3 expressing CHO cells are assayed electrophysiologically using whole cell voltage clamped techniques. Currents are recorded via pCLAMP8 suite of software via an Axopatch 200A and filtered at 5 kHz. Series-resistance compensation for all experiments is 80% using 2-5 MΩ resistance, fire-polished pipettes. Unless stated, the holding potential for most experiments is −60 mV, apart from the current-voltage relationship studies (2 second ramp from −100 to +80 mV). Cells are normally bathed in a medium containing (mM): NaCl, 140; KCl, 5; Glucose; 10, HEPES, 10; CaCl2, 2; MgCl2 1; titrated to pH 7.4 with NaOH, apart from the monovalent permeability studies, when NaCl is replaced by equimolar KCl or CsCl with the omission of KCl, 5 mM. For the divalent permeability studies, the solutions either contain 1 mM Ca^2+ or Mg^2+ and (mM) NaCl, 100; Glucose, 10; Hepes, 10; sucrose, 80 or 30 mM test ion, in the above solution minus sucrose. The experiments in calcium free media have no added CaCl2 with the addition of 100 μM EGTA. Pipette solution is always (mM) CsCl, 140; CaCl2, 1; EGTA, 10; HEPES, 10; MgATP, 2; titrated to pH7.4 with CsOH. For the permeability, ratios for the monovalent cations relative to Na (PX/PNa) are calculated as follows: PX/PNa=Eshift={RT/F}log(PX/PNa[X]O/[Na]O)

T1 sequence (Q8R4D5 whole entry): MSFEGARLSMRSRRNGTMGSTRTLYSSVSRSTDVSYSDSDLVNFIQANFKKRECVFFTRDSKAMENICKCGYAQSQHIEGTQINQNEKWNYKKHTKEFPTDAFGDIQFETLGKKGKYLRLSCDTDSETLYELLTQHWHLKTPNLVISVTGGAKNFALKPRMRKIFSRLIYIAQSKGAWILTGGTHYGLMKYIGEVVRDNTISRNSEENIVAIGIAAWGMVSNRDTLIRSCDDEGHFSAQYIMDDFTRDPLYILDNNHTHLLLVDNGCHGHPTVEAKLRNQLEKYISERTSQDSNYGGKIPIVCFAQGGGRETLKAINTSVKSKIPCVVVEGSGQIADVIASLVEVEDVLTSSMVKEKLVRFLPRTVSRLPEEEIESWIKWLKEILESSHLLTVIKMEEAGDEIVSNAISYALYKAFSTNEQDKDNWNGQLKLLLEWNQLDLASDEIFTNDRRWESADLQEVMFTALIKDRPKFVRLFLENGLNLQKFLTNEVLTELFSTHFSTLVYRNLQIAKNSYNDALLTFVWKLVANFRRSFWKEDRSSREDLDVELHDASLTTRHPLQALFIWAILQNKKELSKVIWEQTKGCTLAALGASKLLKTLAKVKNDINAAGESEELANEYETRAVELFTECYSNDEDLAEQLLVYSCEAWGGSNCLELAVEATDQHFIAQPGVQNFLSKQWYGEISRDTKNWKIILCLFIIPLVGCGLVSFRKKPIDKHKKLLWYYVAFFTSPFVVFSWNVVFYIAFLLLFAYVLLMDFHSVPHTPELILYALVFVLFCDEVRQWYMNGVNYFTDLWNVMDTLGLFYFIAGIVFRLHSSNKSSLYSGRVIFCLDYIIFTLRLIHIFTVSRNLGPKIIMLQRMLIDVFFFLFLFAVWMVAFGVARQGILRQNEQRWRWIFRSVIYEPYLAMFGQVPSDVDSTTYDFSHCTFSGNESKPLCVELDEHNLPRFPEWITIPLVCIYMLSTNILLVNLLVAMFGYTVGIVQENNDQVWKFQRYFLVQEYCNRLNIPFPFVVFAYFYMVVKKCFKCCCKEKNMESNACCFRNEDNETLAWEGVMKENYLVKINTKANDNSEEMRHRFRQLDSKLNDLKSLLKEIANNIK

## CC1CCC(C(C)C)C(O)C1 (stereo not shown) [menthol]
Mouse TRPM8 [1]; 30° C., 10 μM (FIG. 7E)
  calcium response of TRPM8 expressing cells upon lowering the temperature to 30° C.: intracellular calcium levels increases; also recorded: marked increase in intracellular Ca^2+
Mouse TRPM8 [1]; 33° C., 10 μM (FIG. 7E)
  calcium response of TRPM8 expressing cells at 33° C.: does not induce a calcium response; also recorded: does not elicit an influx of Ca^2+
Mouse TRPM8 [1]; cells incubated at 25° C., 10 and 100 μM
  intracellular calcium (Fura-2 fluorescence) response of TRPM8 cells: increases significantly; also recorded: responds to menthol
Mouse TRPM8 [1]; repeated applications (FIG. 7E)
  desensitization of TRPM8-expressing cells on repeated applications: do not appear to desensitize
Mouse TRPM8 [2]; 1 mM, Vh=−60 mV, 25° C.
  inward currents evoked in TRPM8-expressing CHO cells (FIG. 10A): Inward currents evoked
Mouse TRPM8 [2]; +60 mV, 0.1, 0.5, 1 and 10 mM
  concentration-response relationship of evoked currents at 22° C. versus 35° C.: shifted to the left at the lower temperature
Mouse TRPM8 [2]; CsCl pipette, NaCl-based bath solution, n=12
  Erev of the menthol activated current: −9.28±0.75 mV
Mouse TRPM8 [2]; temperatures above the threshold for cold activation (>23° C.)
  currents evoked in TRPM8 expressing cells: evokes rapidly activating currents
[3]
  calcium response of non-transfected CHO cells: completely insensitive; also recorded: no increase in [Ca^2+]i
[4]
  currents evoked in non-transfected CHO cells: not in non-transfected CHO cells

## Oc1cc2c(cc1O)CN(C(=S)NCCc1ccc(Cl)cc1)CCC2 [capsazepine]
Mouse TRPV3; 10 μM applied for 2 minutes prior to the test heat challenge, after 4-5 sensitizing heat steps, no-antagonist control 1.57±0.25
  amplitude of test heat-evoked current relative to the preceding response: 2.31±0.36 times the amplitude of the preceding response

## COc1cc(CNC(=O)CCCC/C=C/C(C)C)ccc1O [Capsaicin, capsaicin]
Mouse TRPV3; 1 μM, whole cell voltage clamp
  current response evoked in TRPV3-expressing cells: does not evoke a response
Mouse TRPM8 [1]; 10 μM
  intracellular calcium response evoked in TRPM8 expressing cells: does not evoke a response

## N.N.N.N.N.N.N.N.N.N.N.N.N.N.[Cl-].[Cl-].[Cl-].[Cl-].[Cl-].[Cl-].[O-2].[O-2].[Ru+3].[Ru+3].[Ru+4] [ruthenium red]
Mouse TRPV3; 1 μM applied for 2 minutes prior to the test heat challenge, after 4-5 sensitizing heat steps, no-antagonist control 1.57±0.25
  relative amplitude of the heat response (test heat-evoked current relative to the preceding response): 0.34±0.03
Mouse TRPV3; 1 μM, repeated heat steps
  effect on sensitization and heat response of TRPV3 (FIG. 4D): attenuates the sensitization and inhibits the heat response
Mouse TRPM8 [1]; 5 μM
  suppression of the temperature (cold) calcium response of TRPM8 expressing cells: does not suppress the temperature response
